According to PMC5448077, “Development of an orally available inhibitor of CLK1 for skipping a mutated dystrophin exon in Duchenne muscular dystrophy” (Scientific Reports, 2017):

Columns and labels:
Experiment in all cases: biochemical
PDHK2 = molecular target: T1, PDHK2 (Homo sapiens, UniProt Q15119)
T1 construct: gene PDK2
Protocol: (§1) These assays rely on the phosphorylation of small synthetic peptides developed for each kinase, and detect activity by changes in electrophoretic mobility (MSA assay) or by binding of a fluorescently labelled peptide to a large micro-particle and concomitant polarization increases (IMAP assay). Reaction conditions for each kinase are described in Supplementary Table S5. All kinase assays were carried out at Carna Biosciences (Kobe, Japan). The inhibitory map was constructed using Kinome Render[41]. Inhibitor (4×), substrate/ATP-Metal (4×), and kinase (2×) solutions were prepared with assay buffer (20 mM HEPES, 0.01% Triton X-100, 2 mM DTT, pH 7.5) and mixed in 384-well plates at room temperature for 1 or 5 h depending on the kinase. Reactions were stopped by the addition of termination buffer (QuickScout Screening Assist MSA; Carna Biosciences). The entire reaction mixture was then applied to a LabChip system (Perkin-Elmer, Waltham, MA, USA) and the product and substrate peptide peaks were separated and quantified, and then heights of product (P) and substrate (S) peptide peaks were calculated. The level of kinase activity was evaluated with the following equation: activity = P/(P + S).

PHKG1 = PHKG1 (Homo sapiens, UniProt Q16816)
PHKG1, sequence (Q16816 whole entry): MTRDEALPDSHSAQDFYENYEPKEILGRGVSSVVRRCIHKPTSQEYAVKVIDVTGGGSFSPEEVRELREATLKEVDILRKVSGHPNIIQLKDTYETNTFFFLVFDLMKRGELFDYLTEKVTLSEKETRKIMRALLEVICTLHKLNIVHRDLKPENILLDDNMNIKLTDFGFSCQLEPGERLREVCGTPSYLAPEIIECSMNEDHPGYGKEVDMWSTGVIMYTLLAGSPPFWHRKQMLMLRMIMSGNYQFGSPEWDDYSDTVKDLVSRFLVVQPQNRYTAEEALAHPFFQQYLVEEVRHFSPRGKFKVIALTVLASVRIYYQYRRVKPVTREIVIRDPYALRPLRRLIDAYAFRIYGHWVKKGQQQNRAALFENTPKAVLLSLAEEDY
Protocol: as §1

EPHA5 = EPHA5 (Homo sapiens, UniProt P54756)
Protocol: as §1

TIE2 = molecular target: T2, TIE2 (Homo sapiens, UniProt Q02763)
T2 construct: gene TEK
Protocol: as §1

TRKB = molecular target: T3, TRKB (Homo sapiens, UniProt Q16620)
T3 construct: gene NTRK2
Protocol: as §1

LYNa = molecular target: T4, LYNa (Homo sapiens, UniProt P07948)
T4 construct: gene LYN; isoform a
Protocol: as §1

FAK = molecular target: T5, FAK (Homo sapiens, UniProt Q05397)
T5 construct: gene PTK2
Protocol: as §1

IGF1R = IGF1R (Homo sapiens, UniProt P08069)
Protocol: as §1

CDK7/CycH/MAT1 = CDK7/CycH/MAT1 (Homo sapiens, UniProt P50613)
Protocol: as §1

MET(Y1235D) = MET(Y1235D) (Homo sapiens, UniProt P08581, Y1235D)
Protocol: as §1

SLK = SLK (Homo sapiens, UniProt Q9H2G2)
Protocol: as §1

PASK = PASK (Homo sapiens, UniProt Q96RG2)
Protocol: as §1

PDGFRα(T674I) = molecular target: T6, PDGFRα(T674I) (Homo sapiens, UniProt P16234, T674I)
T6 construct: gene PDGFRA
Protocol: as §1

CK1γ2 = molecular target: T7, CK1γ2 (Homo sapiens, UniProt P78368)
T7 construct: gene CSNK1G2
Protocol: as §1

MINK = molecular target: T8, MINK (Homo sapiens, UniProt Q8N4C8)
T8 construct: gene MINK1
T8 sequence (Q8N4C8 whole entry): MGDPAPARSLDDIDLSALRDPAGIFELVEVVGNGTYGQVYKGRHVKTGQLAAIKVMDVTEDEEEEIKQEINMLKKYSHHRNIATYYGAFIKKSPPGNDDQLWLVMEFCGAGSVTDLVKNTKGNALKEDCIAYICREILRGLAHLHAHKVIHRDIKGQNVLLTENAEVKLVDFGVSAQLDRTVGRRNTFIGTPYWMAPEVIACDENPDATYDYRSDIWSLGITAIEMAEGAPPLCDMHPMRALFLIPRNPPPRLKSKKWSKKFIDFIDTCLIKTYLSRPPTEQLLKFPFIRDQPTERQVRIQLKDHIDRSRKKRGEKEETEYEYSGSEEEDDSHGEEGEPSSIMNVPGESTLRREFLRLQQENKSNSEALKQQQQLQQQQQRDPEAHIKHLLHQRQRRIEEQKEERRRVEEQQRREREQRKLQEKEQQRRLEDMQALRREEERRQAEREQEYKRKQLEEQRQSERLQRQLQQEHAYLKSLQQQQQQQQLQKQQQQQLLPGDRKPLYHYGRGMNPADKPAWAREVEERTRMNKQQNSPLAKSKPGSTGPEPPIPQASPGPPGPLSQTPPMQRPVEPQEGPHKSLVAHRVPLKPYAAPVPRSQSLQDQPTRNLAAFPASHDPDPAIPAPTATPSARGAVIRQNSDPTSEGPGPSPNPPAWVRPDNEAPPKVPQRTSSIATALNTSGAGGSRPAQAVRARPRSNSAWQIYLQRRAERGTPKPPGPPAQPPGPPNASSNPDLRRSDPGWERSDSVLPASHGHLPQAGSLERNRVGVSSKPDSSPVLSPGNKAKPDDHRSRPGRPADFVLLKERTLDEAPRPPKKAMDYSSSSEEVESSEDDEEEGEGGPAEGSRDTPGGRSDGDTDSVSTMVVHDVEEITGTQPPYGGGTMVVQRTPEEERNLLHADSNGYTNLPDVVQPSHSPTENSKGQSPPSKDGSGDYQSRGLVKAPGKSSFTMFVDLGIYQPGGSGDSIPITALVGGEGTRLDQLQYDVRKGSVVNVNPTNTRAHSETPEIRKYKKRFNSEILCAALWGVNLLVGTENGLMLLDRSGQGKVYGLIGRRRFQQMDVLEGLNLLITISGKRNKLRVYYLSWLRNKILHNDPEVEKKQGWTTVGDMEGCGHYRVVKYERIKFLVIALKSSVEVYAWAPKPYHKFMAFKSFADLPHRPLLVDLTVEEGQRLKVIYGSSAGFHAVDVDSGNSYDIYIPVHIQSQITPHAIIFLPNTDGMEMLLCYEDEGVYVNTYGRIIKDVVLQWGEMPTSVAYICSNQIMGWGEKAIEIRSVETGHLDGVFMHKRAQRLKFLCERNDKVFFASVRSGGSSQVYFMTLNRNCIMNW
Protocol: as §1

NuaK2 = NuaK2 (Homo sapiens, UniProt Q9H093)
Protocol: as §1

AMPKα1/β1/γ1 = molecular target: T9, AMPKα1/β1/γ1 (Homo sapiens, UniProt Q13131)
T9 construct: gene PRKAA1
Protocol: as §1

ROCK2 = ROCK2 (Homo sapiens, UniProt O75116)
Protocol: as §1

SIK = molecular target: T10, SIK (Homo sapiens, UniProt P57059)
T10 construct: gene SIK1
T10 sequence (P57059 whole entry): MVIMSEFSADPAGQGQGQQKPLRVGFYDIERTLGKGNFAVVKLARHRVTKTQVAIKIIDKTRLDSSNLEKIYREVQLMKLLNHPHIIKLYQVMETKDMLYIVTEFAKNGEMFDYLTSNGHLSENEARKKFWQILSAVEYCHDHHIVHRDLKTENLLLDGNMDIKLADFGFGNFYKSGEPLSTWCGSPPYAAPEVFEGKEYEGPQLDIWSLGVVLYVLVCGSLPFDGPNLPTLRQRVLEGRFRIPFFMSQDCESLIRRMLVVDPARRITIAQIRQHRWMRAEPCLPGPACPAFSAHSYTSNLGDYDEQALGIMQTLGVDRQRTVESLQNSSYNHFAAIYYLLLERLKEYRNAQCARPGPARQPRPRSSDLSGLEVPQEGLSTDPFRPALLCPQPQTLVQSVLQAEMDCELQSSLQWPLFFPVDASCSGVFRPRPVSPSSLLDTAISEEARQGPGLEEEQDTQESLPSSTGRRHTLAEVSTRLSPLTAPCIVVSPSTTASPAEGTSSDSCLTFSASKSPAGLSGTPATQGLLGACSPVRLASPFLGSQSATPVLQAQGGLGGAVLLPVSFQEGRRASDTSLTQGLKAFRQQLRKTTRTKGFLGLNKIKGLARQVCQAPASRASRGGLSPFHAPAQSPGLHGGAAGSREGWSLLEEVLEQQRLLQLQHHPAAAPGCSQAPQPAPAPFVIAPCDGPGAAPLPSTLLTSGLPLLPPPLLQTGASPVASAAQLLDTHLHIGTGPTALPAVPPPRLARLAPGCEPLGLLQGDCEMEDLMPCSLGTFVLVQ
Protocol: as §1

CaMK1δ = molecular target: T11, CaMK1δ (Homo sapiens, UniProt Q8IU85)
T11 construct: gene CAMK1D
T11 sequence (Q8IU85 whole entry): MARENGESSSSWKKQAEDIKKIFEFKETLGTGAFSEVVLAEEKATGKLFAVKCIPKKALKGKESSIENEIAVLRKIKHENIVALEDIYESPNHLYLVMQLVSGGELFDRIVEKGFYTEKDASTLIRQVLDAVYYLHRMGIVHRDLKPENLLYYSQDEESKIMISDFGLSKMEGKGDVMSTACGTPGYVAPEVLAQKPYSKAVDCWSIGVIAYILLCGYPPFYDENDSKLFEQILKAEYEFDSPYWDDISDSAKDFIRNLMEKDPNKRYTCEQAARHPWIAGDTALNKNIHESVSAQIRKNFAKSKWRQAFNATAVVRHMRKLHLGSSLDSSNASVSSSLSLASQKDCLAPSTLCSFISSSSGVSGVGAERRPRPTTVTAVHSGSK
Protocol: as §1

PIK3CA/PIK3R1 = PIK3CA/PIK3R1 (Homo sapiens, UniProt P42336)
Protocol: as §1

CLK3 = CLK3 (Homo sapiens, UniProt P49761)
CLK3, sequence (P49761 whole entry): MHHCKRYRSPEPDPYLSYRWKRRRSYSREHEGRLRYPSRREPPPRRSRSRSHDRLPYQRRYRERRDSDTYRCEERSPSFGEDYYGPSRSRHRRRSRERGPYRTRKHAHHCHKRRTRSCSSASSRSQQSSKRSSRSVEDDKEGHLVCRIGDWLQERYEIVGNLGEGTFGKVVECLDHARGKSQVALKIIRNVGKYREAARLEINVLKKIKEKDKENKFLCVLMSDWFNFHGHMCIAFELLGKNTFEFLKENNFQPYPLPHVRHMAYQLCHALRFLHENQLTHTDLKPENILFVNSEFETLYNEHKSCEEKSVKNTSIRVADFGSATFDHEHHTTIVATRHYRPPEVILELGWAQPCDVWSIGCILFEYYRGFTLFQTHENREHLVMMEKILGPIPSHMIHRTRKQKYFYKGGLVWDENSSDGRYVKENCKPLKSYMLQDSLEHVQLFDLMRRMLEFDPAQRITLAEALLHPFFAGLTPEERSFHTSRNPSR
Protocol: as §1

INSR = INSR (Homo sapiens, UniProt P06213)
Protocol: as §1

PKCδ = molecular target: T12, PKCδ (Homo sapiens, UniProt Q05655)
T12 construct: gene PRKCD
Protocol: as §1

EPHA1 = EPHA1 (Homo sapiens, UniProt P21709)
Protocol: as §1

EPHA7 = EPHA7 (Homo sapiens, UniProt Q15375)
Protocol: as §1

PYK2 = molecular target: T13, PYK2 (Homo sapiens, UniProt Q14289)
T13 construct: gene PTK2B
Protocol: as §1

QIK = molecular target: T14, QIK (Homo sapiens, UniProt Q9H0K1)
T14 construct: gene SIK2
Protocol: as §1

PKCα = molecular target: T15, PKCα (Homo sapiens, UniProt P17252)
T15 construct: gene PRKCA
Protocol: as §1

WNK2 = WNK2 (Homo sapiens, UniProt Q9Y3S1)
Protocol: as §1

LTK = LTK (Homo sapiens, UniProt P29376)
LTK, sequence (P29376 whole entry): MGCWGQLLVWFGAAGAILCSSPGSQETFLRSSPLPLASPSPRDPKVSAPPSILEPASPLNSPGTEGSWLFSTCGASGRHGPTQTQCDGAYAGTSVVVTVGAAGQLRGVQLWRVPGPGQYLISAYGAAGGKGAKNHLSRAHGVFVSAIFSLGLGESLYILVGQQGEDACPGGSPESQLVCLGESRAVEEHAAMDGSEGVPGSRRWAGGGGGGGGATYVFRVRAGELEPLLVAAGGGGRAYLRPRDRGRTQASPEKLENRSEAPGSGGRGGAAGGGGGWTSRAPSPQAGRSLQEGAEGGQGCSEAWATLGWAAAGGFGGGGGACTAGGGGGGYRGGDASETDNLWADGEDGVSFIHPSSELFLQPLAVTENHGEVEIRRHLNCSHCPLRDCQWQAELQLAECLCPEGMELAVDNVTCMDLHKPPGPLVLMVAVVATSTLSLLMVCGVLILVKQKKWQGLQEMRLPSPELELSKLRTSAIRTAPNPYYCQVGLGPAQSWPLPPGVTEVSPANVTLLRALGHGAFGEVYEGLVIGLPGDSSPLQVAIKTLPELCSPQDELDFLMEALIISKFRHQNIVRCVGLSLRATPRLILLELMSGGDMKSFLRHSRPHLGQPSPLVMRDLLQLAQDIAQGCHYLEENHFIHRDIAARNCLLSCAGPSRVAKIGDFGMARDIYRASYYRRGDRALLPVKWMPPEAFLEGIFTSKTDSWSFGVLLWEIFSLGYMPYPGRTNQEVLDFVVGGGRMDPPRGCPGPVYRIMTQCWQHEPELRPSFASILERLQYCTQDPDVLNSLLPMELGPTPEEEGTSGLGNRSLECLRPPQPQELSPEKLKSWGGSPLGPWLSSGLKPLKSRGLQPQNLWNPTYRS
Protocol: as §1

c1cc(-c2ccc3[nH]ncc3c2)ccn1 [TG693, 5-(4-pyridinyl)-1H-indazole]
inhibition at 1 µM (PDHK2): -0.8% | inhibition at 1 µM (PHKG1): 0% | inhibition at 1 µM (EPHA5): -7.5% | inhibition at 1 µM (TIE2): 9.7% | inhibition at 1 µM (TRKB): 0.1% | inhibition at 1 µM (LYNa): 0.1% | inhibition at 1 µM (FAK): 3.6% | inhibition at 1 µM (IGF1R): 3.3% | inhibition at 1 µM (CDK7/CycH/MAT1): 6.2% | inhibition at 1 µM (MET(Y1235D)): -2% | inhibition at 1 µM (SLK): 1.2% | inhibition at 1 µM (PASK): 14.7% | inhibition at 1 µM (PDGFRα(T674I)): 7.6% | inhibition at 1 µM (CK1γ2): -3.2% | inhibition at 1 µM (MINK): 23.2% | inhibition at 1 µM (NuaK2): 0.4% | inhibition at 1 µM (AMPKα1/β1/γ1): -6.5% | inhibition at 1 µM (ROCK2): 46.3% | inhibition at 1 µM (SIK): 3.2% | inhibition at 1 µM (CaMK1δ): 7% | inhibition at 1 µM (PIK3CA/PIK3R1): 36.8% | inhibition at 1 µM (CLK3): 11.7% | inhibition at 1 µM (INSR): -5.9% | inhibition at 1 µM (PKCδ): 1.5% | inhibition at 1 µM (EPHA1): -2.8% | inhibition at 1 µM (EPHA7): 5% | inhibition at 1 µM (PYK2): 3.3% | inhibition at 1 µM (QIK): 3.4% | inhibition at 1 µM (PKCα): -5.4% | inhibition at 1 µM (WNK2): 4% | inhibition at 1 µM (LTK): 3%
